Where two headings read alike, the source gives them in different places. Non-standard residues stand in square brackets, D forms with d. Primed or numbered codes have the meaning given here. No end group written: not given here. FITC′ = fluorescein isothiocyanate label on the N-terminus; pS = N[C@@H](COP(=O)(O)O)C(=O)O
Key:
GK domain of PSD95 [1] = settings: isothermal titration calorimetry assay; ref Zhu et al., 2017; cited from earlier work
GK domain of PSD95 [2] = settings: fluorescence polarization assay, cited from earlier work
Description: page 6: 2. Supplementary Tables Supplementary Table 1.

[3] = target: T1, His6-tagged PSD95 GK domain (a.a. 531-713) (UniProt P31016 531-713); assay: fluorescence polarisation; direct titration: 10 nM FITC-SAPAP constant, His-GK 0 to 20 uM; 50 mM Tris, 100 mM NaCl, pH 7.5; 384-well plates, 1-h incubation; settings: both partners purified
T1 construct: postsynaptic density protein 95 (PSD95, encoded by DLG4), guanylate kinase (GK) domain, a.a; 531-713; In the MST assay the protein was labelled on its His tag with the RED-Tris-NTA kit; The PDB entries are cited crystal structures of PSD95 GK with peptides; also called His-GK; His-PSD95 GK; source: E. coli BL21 (DE3), purified (Ni-NTA, size-exclusion chromatography); not shown: His6, N-terminal, …
T1 sequence (P31016 531-713): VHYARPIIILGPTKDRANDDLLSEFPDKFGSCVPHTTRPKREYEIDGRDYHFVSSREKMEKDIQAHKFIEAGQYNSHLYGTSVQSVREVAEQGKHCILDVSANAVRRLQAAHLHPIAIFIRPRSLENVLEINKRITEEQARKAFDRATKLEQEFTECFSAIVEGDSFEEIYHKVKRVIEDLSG

For AARRE[pS]YLKATQPSL [p-SAPAP], the Kd (GK domain of PSD95 [1]) is listed as 80 ± 10 nM.

For AELEGGPYSPLGKDYRKAEGEREEEG [MAP1A], the Kd (GK domain of PSD95 [2]; ref Xia et al., 2017) is given as 12100 ± 200 nM.

For GRRH[pS]MENLELMKLTPEK [p-LGN], the Kd (GK domain of PSD95 [2]; ref Zhu et al., 2011) is given as 530 ± 90 nM.

For LSRVK[pS]LKKSLRQSF [p-LGL2], the Kd (GK domain of PSD95 [2]; ref Zhu et al., 2014) is listed as 10200 ± 1300 nM.

In the case of RIRREEYRRAINGQSFDLS, the Kd (GK domain of PSD95 [1]) is given as 660 ± 130 nM.

In the case of RIRREEYRRAINGQSMKL, the Kd (GK domain of PSD95 [1]) is listed as 1860 ± 310 nM.

B1: FITC-labeled SAPAP peptide FITC-AARRE(pS)YLKATQ (peptide)
peptide: {FITC′}-AARRE[pS]YLKATQ
notes: phosphorylated SAPAP peptide; SAPAP1 (DLGAP1, GKAP) is the member it names elsewhere; also called FITC-SAPAP; FITC-SAPAP probe; source: synthetic peptide, bought: China Peptides
Molecule B1 has a Kd [3] of 4280 nM.
